Test results: article PMC9002265, “A New Series of Strigolactone Analogs Derived From Cinnamic Acids as Germination Inducers for Root Parasitic Plants” (Frontiers in Plant Science, 2022)

System: Arabidopsis max4 mutant
Test: Shoot branching assay, hydroponic culture
Type: in vivo
Settings: 1 μM in hydroponic culture
Protocol: Sterilized seeds of the Arabidopsis max4-8 mutant were put on the rockwool which was soaked in Noren’s hydroponic solution ([Noren et al., 2004]) and cultured at 22°C for 14 days under LED light (105 μmol/m^2/s) with a 16 h light/8 h dark photoperiod. Seedlings were transferred to a plastic pot containing 800 ml of hydroponic culture and grown under the same conditions for additional 15 or 16 days. Test compounds were dissolved in acetone and added to hydroponic culture. The final concentration of test compounds was 1 or 5 μM and acetone was adjusted to 0.01% (v/v). The hydroponic culture was renewed after 7 days. The number of rosette branches (>5 mm) was counted. In the experience at 5 μM concentration, fresh weight of shoot was also measured to evaluate the side effects of tested compounds.

CC1=CC(O/C=C2\CCOC2=O)OC1=O (stereo not shown) [GR5]
shoot branching inhibition of max4: clearly inhibited shoot branching
